US20210405025A1, “IDENTIFYING COMPOUNDS FOR TREATING CANCER AND USE THEREOF” (THE UAB RESEARCH FOUNDATION, priority 2018, published 2021)
Where a name gives a salt, the structure may show the parent alone. Starred links: 1 amine or outer side, 2 acyl side, 3 side chain; linkers in the order of their positions; H or OH if unused. Positions of bridges follow the written chain, without caps; N, C: chain ends. Non-standard residues stand in square brackets, D forms with d. Residues, ends and D or L forms follow the SMILES beside them. Chains are numbered I, II in the order given. Actinocin(9to1) = Cc1c2oc3c(C)ccc(C(=O)[*:1])c3nc-2c(C(=O)[*:2])c(N)c1=O; NMeV = CN[C@H](C(=O)O)C(C)C; Sar = CNCC(=O)O

Test system: relapsed AML cells
Experiment: Drug sensitivity assay, 1,536-well, 3-day culture with individual approved drugs at 10 μM, viability by alamarBlue
Type: cell-based, human
Conditions: number of relapsed AML cases out of 18 tested with >70% cell death; 10 μM, 3-day culture
In short: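 Three-day exposure of primary AML cells to individual drugs in 1,536-well format, viability read as percent live cells. Cells were thawed, cultured overnight, sorted by FACS for viable blasts and plated at 4,000-4,500 cells/5 μL in cytokine-supplemented IMDM/BIT medium.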

CCOc1cc2ncc(C#N)c(Nc3ccc(OCc4cccc(F)c4)c(Cl)c3)c2cc1NC(=O)/C=C/CN(C)C [HKI 357]
#Cases >70% cell death: 4

COc1c(C)c2c(c(O)c1C/C=C(\C)CCC(=O)OCCN1CCOCC1)C(=O)OC2 [MYCOPHENOLATE MOFETIL]
#Cases >70% cell death: 5

CCN(CC)CCOc1ccc2c(c1)C(=O)c1cc(OCCN(CC)CC)ccc1-2 [TILORONE]
#Cases >70% cell death: 10

COc1cccc2c1C(=O)c1c(O)c3c(c(O)c1C2=O)C[C@@](O)(C(=O)CO)C[C@@H]3O[C@H]1C[C@H](N)[C@H](O)[C@H](C)O1 [DOXORUBICIN]
#Cases >70% cell death: 18

CN(C)c1ccc(C(=C2C=CC(=[N+](C)C)C=C2)c2ccc(N(C)C)cc2)cc1 [GENTIAN VIOLET]
#Cases >70% cell death: 18

CC(C)N1CCN(c2ccc(OCC3COC(Cn4cncn4)(c4ccc(Cl)cc4Cl)O3)cc2)CC1 (centres unmarked) [TERCONAZOLE]
#Cases >70% cell death: 7

Cn1cncc1[C@@](N)(c1ccc(Cl)cc1)c1ccc2c(c1)c(-c1cccc(Cl)c1)cc(=O)n2C [TIPIFARNIB]
#Cases >70% cell death: 7

COCCCC/C(=N\OCCN)c1ccc(C(F)(F)F)cc1 [FLUVOXAMINE MALEATE]
#Cases >70% cell death: 1

Nc1nc(Cl)nc2c1ncn2[C@@H]1O[C@H](CO)[C@@H](O)[C@@H]1F [CLOFARABINE]
#Cases >70% cell death: 18

CN(C)/N=N/c1[nH]cnc1C(N)=O [DACARBAZINE]
#Cases >70% cell death: 14

N=C(N)NC(=O)Cc1c(Cl)cccc1Cl [GUANFACINE HCL]
#Cases >70% cell death: 1

C[C@H]1C[C@H]2[C@@H]3CCC4=CC(=O)C=C[C@]4(C)[C@@]3(F)[C@@H](O)C[C@]2(C)[C@@]1(O)C(=O)CO [BETAMETHASONE]
#Cases >70% cell death: 1

CS(=O)(=O)CCNCc1ccc(-c2ccc3ncnc(Nc4ccc(OCc5cccc(F)c5)c(Cl)c4)c3c2)o1 [LAPATINIB]
#Cases >70% cell death: 2

CC[C@@H](C(=O)[C@@H](C)[C@@H](O)[C@H](C)[C@@H]1O[C@@H]([C@@H](CC)C(=O)O)CC[C@@H]1C)[C@H]1O[C@]2(C=C[C@@H](O)[C@]3(CC[C@@](C)([C@H]4CC[C@](O)(CC)[C@H](C)O4)O3)O2)[C@H](C)C[C@@H]1C [SALINOMYCIN]
#Cases >70% cell death: 10

C#C[C@]1(O)CC[C@H]2[C@@H]3[C@H](C)CC4=C(CCC(=O)C4)[C@H]3CC[C@@]21C [TIBOLONE]
#Cases >70% cell death: 1

CC1(C)CC[C@]2(C(=O)O)CC[C@]3(C)[C@H](C(=O)C=C4[C@@]5(C)C=C(C#N)C(=O)C(C)(C)[C@@H]5CC[C@]43C)[C@@H]2C1 [BARDOXOLONE]
#Cases >70% cell death: 12

CC(C)C[C@H](NC(=O)[C@H](CCc1ccccc1)NC(=O)CN1CCOCC1)C(=O)N[C@@H](Cc1ccccc1)C(=O)N[C@@H](CC(C)C)C(=O)[C@@]1(C)CO1 [CARFILZOMIB]
#Cases >70% cell death: 18

Cc1ccc2nc(N)[nH]c(=O)c2c1Sc1ccncc1 [NOLATREXED DIHYDROCHLORIDE]
#Cases >70% cell death: 1

C[C@@H]1O[C@@H](O[C@H]2C[C@@H](O)[C@]3(CO)[C@H]4[C@H](O)C[C@]5(C)[C@@H](C6=CC(=O)OC6)CC[C@]5(O)[C@@H]4CC[C@]3(O)C2)[C@H](O)[C@H](O)[C@H]1O.O.O.O.O.O.O.O.O [STROPHANTINE OCTAHYDRATE]
#Cases >70% cell death: 18

CCCCCCc1ccc(O)cc1O.Nc1c2ccccc2nc2ccccc12 [ACRISORCIN]
#Cases >70% cell death: 18

Nc1ccncc1 [4-AMINOPYRIDINE]
#Cases >70% cell death: 1

NALTRIBEN METHAN[…]
#Cases >70% cell death: 1

CCC1=C[C@@H]2CN(C1)Cc1c([nH]c3ccccc13)[C@@](C(=O)OC)(c1cc3c(cc1OC)N(C)[C@H]1[C@@](O)(C(=O)OC)[C@H](OC(C)=O)[C@]4(CC)C=CCN5CC[C@]31[C@@H]54)C2 [VINORELBINE]
#Cases >70% cell death: 16

IVERMECTIN
#Cases >70% cell death: 18

COc1ccc(CCN2CCC(Nc3nc4ccccc4n3Cc3ccc(F)cc3)CC2)cc1 [ASTEMIZOLE]
#Cases >70% cell death: 7

Nc1nc2nc[nH]c2c(=S)[nH]1 [TIOGUANINE (6-thioguanine), TIOGUANINE]
#Cases >70% cell death: 16

COc1ccc(F)c(F)c1C(=O)c1cnc(NC2CCN(S(C)(=O)=O)CC2)nc1N [R-547]
#Cases >70% cell death: 18

O=C(CCCN1CC=C(n2c(=O)[nH]c3ccccc32)CC1)c1ccc(F)cc1 [DROPERIDOL]
#Cases >70% cell death: 2

COC1=CC(c2cc3ccccc3[nH]2)=N/C1=C\c1[nH]c(C)cc1C [OBATOCLAX]
#Cases >70% cell death: 2

CCC(C)n1ncn(-c2ccc(N3CCN(c4ccc(OCC5COC(Cn6cncn6)(c6ccc(Cl)cc6Cl)O5)cc4)CC3)cc2)c1=O (centres unmarked) [ITRACONAZOLE]
#Cases >70% cell death: 6

c1ccc(CC2=NCCN2)cc1 [TOLAZOLINE HYDROCHLORIDE]
#Cases >70% cell death: 4

CN1CCOC(c2ccccc2)c2ccccc2C1 (centres unmarked) [NEFOPAM]
#Cases >70% cell death: 2

COc1cc2c(Nc3ccc(Br)cc3F)ncnc2cc1OCC1CCN(C)CC1 [VANDETANIB]
#Cases >70% cell death: 1

Cc1cc(Nc2nc(N[C@@H](C)c3ncc(F)cn3)ncc2Cl)[nH]n1 [AZD-1480]
#Cases >70% cell death: 12

CCCOc1ccc2nc(NC(=O)OC)[nH]c2c1 [OXIBENDAZOLE]
#Cases >70% cell death: 5

C/C=C(\C)C(=O)N[C@@H](c1ccccc1)[C@@H](O)C(=O)O[C@H]1C[C@@]2(O)[C@@H](OC(=O)c3ccccc3)[C@@H]3[C@]4(OC(C)=O)CO[C@@H]4C[C@H](O)[C@@]3(C)C(=O)[C@H](OC(C)=O)C(=C1C)C2(C)C [CEPHALOMANNINE]
#Cases >70% cell death: 7

CC[C@@H]1/C=C(\C)C[C@H](C)C[C@H](OC)[C@H]2O[C@@](O)(C(=O)C(=O)N3CCCC[C@H]3C(=O)O[C@H](/C(C)=C/[C@@H]3CC[C@H](Cl)[C@H](OC)C3)[C@H](C)[C@@H](O)CC1=O)[C@H](C)C[C@@H]2OC [PIMECROLIMUS]
#Cases >70% cell death: 2

CN1C[C@H](C(=O)N[C@]2(C)O[C@@]3(O)[C@@H]4CCCN4C(=O)[C@H](Cc4ccccc4)N3C2=O)C[C@@H]2c3cccc4[nH]cc(c34)C[C@H]21 [DIHYDROERGOTAMINE MESYLATE]
#Cases >70% cell death: 1

CCCCC(CC)CNC(=N)NC(=N)NCCCCCCNC(=N)NC(=N)NCC(CC)CCCC (centres unmarked) [ALEXIDINE]
#Cases >70% cell death: 18

COc1c(C)cnc(Cn2cnc3c(Cl)nc(N)nc32)c1C [CNF-2024]
#Cases >70% cell death: 18

C[C@H]1O[C@@H](O[C@H]2[C@@H](O)C[C@H](O[C@H]3[C@@H](O)C[C@H](O[C@H]4CC[C@@]5(C)[C@H](CC[C@@H]6[C@@H]5CC[C@]5(C)[C@@H](C7=CC(=O)OC7)CC[C@]65O)C4)O[C@@H]3C)O[C@@H]2C)C[C@H](O)[C@@H]1O [DIGITOXIN]
#Cases >70% cell death: 18

C[C@H]1COc2c(C3(N)CC3)c(F)cc3c(=O)c(C(=O)O)cn1c23 [PAZUFLOXACIN]
#Cases >70% cell death: 1

Nc1nc(F)nc2c1ncn2[C@@H]1O[C@H](CO)[C@@H](O)[C@@H]1O [FLUDARABINE]
#Cases >70% cell death: 16

OCCOCCN1CCN(C2=Nc3ccccc3Sc3ccccc32)CC1 [QUETIAPINE]
#Cases >70% cell death: 1

CCCCc1oc2ccc(NS(C)(=O)=O)cc2c1C(=O)c1ccc(OCCCN(CCCC)CCCC)cc1 [DRONEDARONE]
#Cases >70% cell death: 12

CC(C)OC(=O)C(C)(C)Oc1ccc(C(=O)c2ccc(Cl)cc2)cc1 [FENOFIBRATE]
#Cases >70% cell death: 3

COc1cc(C(=O)NCc2ccc(OCCN(C)C)cc2)cc(OC)c1OC [TRIMETHOBENZAMIDE HYDROCHLORIDE]
#Cases >70% cell death: 1

Cc1ccc(C(=O)Nc2ccc(CN3CCN(C)CC3)c(C(F)(F)F)c2)cc1C#Cc1cnc2cccnn12 [PONATINIB]
#Cases >70% cell death: 18

COC(=O)Nc1nc2cc(C(=O)c3ccc(F)cc3)ccc2[nH]1 [FLUBENDAZOLE]
#Cases >70% cell death: 2

CC[C@H](C)C(=O)O[C@H]1CCC=C2C=C[C@H](C)[C@H](CC[C@@H]3C[C@@H](O)CC(=O)O3)[C@H]21 [MEVASTATIN]
#Cases >70% cell death: 7

Nc1ccn([C@@H]2O[C@H](CO)[C@@H](O)C2(F)F)c(=O)n1 [GEMCITABINE]
#Cases >70% cell death: 16

CC1(C)CC(=O)c2c(C(F)(F)F)nn(-c3ccc(C(N)=O)c(N[C@H]4CC[C@H](O)CC4)c3)c2C1 [PF-04928473]
#Cases >70% cell death: 18

CC1=C(C(=O)OC(C)C)C(c2cccc([N+](=O)[O-])c2)C(C(=O)OC2CN(C(c3ccccc3)c3ccccc3)C2)=C(N)N1 (centres unmarked) [AZELNIDIPINE]
#Cases >70% cell death: 5

Cc1c2oc3c(C)ccc(C(=O)N[C@@H]4C(=O)N[C@H](C(C)C)C(=O)N5CCC[C@H]5C(=O)N(C)CC(=O)N(C)[C@@H](C(C)C)C(=O)O[C@@H]4C)c3nc-2c(C(=O)N[C@@H]2C(=O)N[C@H](C(C)C)C(=O)N3CCC[C@H]3C(=O)N(C)CC(=O)N(C)[C@@H](C(C)C)C(=O)O[C@@H]2C)c(N)c1=O [DACTINOMYCIN] (I: T[dV]P[Sar][NMeV] / II: T[dV]P[Sar][NMeV]; ester I:1-I:C, II:1-II:C; linker I:N-II:N via Actinocin(9to1))
#Cases >70% cell death: 17

C[C@@H]1CCCN1CCc1cc2cc(-c3ccc(C#N)cc3)ccc2o1 [ABT-239]
#Cases >70% cell death: 1

CC(NCCC(c1ccccc1)c1ccccc1)c1ccccc1 (centres unmarked) [FENDILINE HYDROCHLORIDE]
#Cases >70% cell death: 1

COc1ccc2c(c1)CN(C(=O)CCN1CCC(Cc3ccccc3)CC1)CCS2 [K201]
#Cases >70% cell death: 4

Nc1ncnc2c1ncn2CCOCP(=O)(O)O [ADEFOVIR]
#Cases >70% cell death: 18

NC(=O)Nc1cc(-c2cccc(F)c2)sc1C(=O)N[C@H]1CCCNC1 [AZD-7762]
#Cases >70% cell death: 14
